“And” between values parts separate entries of the source, which are not always exact repeats. Equal values may be shown once. Numbers after ± are expanded uncertainties.
Settings: 298.15 K, Liquid, Vibrating tube method

For `CCCCC(CC)COP(=O)(O)OCC(CC)CCCC` (configuration not stated) [bis(2-ethylhexyl) hydrogen phosphate], the mass density (101 kPa) was 971 ± 2 kg/m3 and 970.5 ± 2 kg/m3 and the mass density (101.33 kPa) was 969.1 ± 0.6 kg/m3.

Reference: the NIST ThermoML archive (doi:10.1021/acs.jced.8b00487)
